This note sets out measurements from the supplement of paper PMC10307832.

Holding throughout (experiment): relative viability (nuclei count vs DMSO), 5 days (fraction); higher = more cells survive
Compound in the assay “Bemcentinib + Olaparib”: Nc1nc(Nc2ccc3c(c2)CC[C@@H](N2CCCC2)CC3)nn1-c1cc2c(nn1)-c1ccccc1CCC2 [Bemcentinib] + O=C(c1cc(Cc2n[nH]c(=O)c3ccccc23)ccc1F)N1CCN(C(=O)C2CC2)CC1 [Olaparib] (partner 8 µM)
In short, it runs like this:
(§1)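 One day after seeding in 1536-well plates, lung cancer cell lines were dosed by pin tool. Dosing was either single-drug or a fixed anchor-drug dose plus five library-drug doses (not always all listed) in √10 steps. After 5 days, nuclei were stained in one fix-and-stain step and counted on 4× images, and relative viability is the nuclei count of treated wells over that of vehicle wells, given as the median of duplicate plates.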

Compound in assay [1]: CC1=CC=C(C=C1)C(=O)CN2C3=C(CCCC3)SC2=N [Pifithrin_alpha] + CS(=O)(=O)CCNCc1ccc(-c2ccc3ncnc(Nc4ccc(OCc5cccc(F)c5)c(Cl)c4)c3c2)o1 [Lapatinib] (partner 2 µM)
In short, it runs like this:
as §1

Compound in the assay “Bemcentinib + Luminespib”: Nc1nc(Nc2ccc3c(c2)CC[C@@H](N2CCCC2)CC3)nn1-c1cc2c(nn1)-c1ccccc1CCC2 [Bemcentinib] + CCNC(=O)c1noc(-c2cc(C(C)C)c(O)cc2O)c1-c1ccc(CN2CCOCC2)cc1 [Luminespib] (partner 0.01 µM)
In short, it runs like this:
as §1

Compound in the assay “Axitinib + Trametinib”: CNC(=O)c1ccccc1Sc1ccc2c(/C=C/c3ccccn3)n[nH]c2c1 [Axitinib] + CC(=O)Nc1cccc(-n2c(=O)n(C3CC3)c(=O)c3c(Nc4ccc(I)cc4F)n(C)c(=O)c(C)c32)c1 [Trametinib] (partner 0.02 µM)
An outline of the steps: as §1

As to NCI-H650, the relative viability with Bemcentinib + Olaparib (first compound 0.04 µM) was found to be 0.402; with Bemcentinib + Olaparib (first compound 0.1265 µM), 0.424; in the assay with Bemcentinib + Olaparib (first compound 0.4 µM) it was 0.42; in the assay with Bemcentinib + Olaparib (first compound 1.265 µM) it was 0.424; in the assay with Bemcentinib + Olaparib (first compound 4 µM), 0.36; in assay [1] (first compound 3.162 µM) it was 1.11. In addition, the relative viability in assay [1] (first compound 10 µM) was determined as 1.11; in assay [1] (first compound 31.62 µM), 0.532; in assay [1] (first compound 100 µM), 0.767; in the assay with Bemcentinib + Luminespib (first compound 0.04 µM), 0.8; with Bemcentinib + Luminespib (first compound 0.1265 µM), 0.963; in the assay with Bemcentinib + Luminespib (first compound 0.4 µM) it was 0.922. The relative viability in the assay with Bemcentinib + Luminespib (first compound 1.265 µM) turned out to be 0.749; with Bemcentinib + Luminespib (first compound 4 µM), 0.729; with Axitinib + Trametinib (first compound 0.005 µM), 1.04; with Axitinib + Trametinib (first compound 0.01581 µM), 1; in the assay with Axitinib + Trametinib (first compound 0.05 µM), 0.893; in the assay with Axitinib + Trametinib (first compound 0.1581 µM), 0.869. In addition, the relative viability with Axitinib + Trametinib (first compound 0.5 µM) is 1.06.
